Where two headings read alike, the source gives them in different places. Peptide text beside a SMILES is read from it.
Tests used:
BK2 receptor [1] = biological target: T1, BK2 receptor (Rattus norvegicus, UniProt P25023); assay: cell-based
T1 sequence (P25023 1-396): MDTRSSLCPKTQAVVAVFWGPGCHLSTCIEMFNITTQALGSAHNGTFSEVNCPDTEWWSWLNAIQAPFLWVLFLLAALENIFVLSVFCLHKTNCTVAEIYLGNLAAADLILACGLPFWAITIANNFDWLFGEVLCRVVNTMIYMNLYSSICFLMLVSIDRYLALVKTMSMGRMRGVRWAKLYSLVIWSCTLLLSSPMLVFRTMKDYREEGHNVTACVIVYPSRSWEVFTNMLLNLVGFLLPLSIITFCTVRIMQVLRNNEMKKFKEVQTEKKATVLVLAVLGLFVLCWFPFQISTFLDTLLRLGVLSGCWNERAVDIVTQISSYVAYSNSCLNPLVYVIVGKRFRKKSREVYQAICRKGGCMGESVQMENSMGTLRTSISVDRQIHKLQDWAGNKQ

NK1 receptor = biological target: T2, NK1 receptor (Cavia porcellus, UniProt P30547); assay: guinea pig ileum assay of NK1 receptor activity against substance P; format: cell-based; conditions: Table O; read-out: NK1 : GPI pA2 (± s.e.m.) (converted)
T2 construct: a standard guinea pig ileum assay of NK1 receptor activity; from tissue; host or cells: guinea pig ileum
T2 sequence (P30547 whole entry): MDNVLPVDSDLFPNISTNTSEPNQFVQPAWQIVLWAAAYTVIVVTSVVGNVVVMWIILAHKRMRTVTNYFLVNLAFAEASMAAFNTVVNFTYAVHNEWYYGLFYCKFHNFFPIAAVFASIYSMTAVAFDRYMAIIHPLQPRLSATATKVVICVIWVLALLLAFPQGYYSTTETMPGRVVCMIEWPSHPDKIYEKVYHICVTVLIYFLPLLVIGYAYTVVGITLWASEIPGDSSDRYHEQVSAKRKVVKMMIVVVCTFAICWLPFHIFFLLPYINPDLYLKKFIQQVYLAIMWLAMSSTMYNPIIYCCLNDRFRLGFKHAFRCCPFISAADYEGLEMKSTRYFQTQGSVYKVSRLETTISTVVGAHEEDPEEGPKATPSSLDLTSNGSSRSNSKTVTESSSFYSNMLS
Source text: In order to illustrate the potential of blocking two different receptor populations with a single compound a consensus NK1 receptor antagonist (DArg-DPro-Lys-Pro-Gln-Asn-DPhe-Phe-DTrp-Leu-Nle) was synthesized. […] Once the activity of this reference ligand was established, a series of lysine containing monomers formed by the systematic substitution of a lysine residue sequentially through the reference peptide was synthesized.

BK2 receptor [2] = biological target: T3, BK2 receptor (Cavia porcellus, UniProt O70526); assay: guinea-pig ileum (GPI) in vitro, antagonism of BK; format: cell-based
T3 construct: tested for activity on guinea pig ileum in vitro on the standard tissue bath/strain gauge system; from tissue; host or cells: guinea pig ileum
T3 sequence (O70526 1-372): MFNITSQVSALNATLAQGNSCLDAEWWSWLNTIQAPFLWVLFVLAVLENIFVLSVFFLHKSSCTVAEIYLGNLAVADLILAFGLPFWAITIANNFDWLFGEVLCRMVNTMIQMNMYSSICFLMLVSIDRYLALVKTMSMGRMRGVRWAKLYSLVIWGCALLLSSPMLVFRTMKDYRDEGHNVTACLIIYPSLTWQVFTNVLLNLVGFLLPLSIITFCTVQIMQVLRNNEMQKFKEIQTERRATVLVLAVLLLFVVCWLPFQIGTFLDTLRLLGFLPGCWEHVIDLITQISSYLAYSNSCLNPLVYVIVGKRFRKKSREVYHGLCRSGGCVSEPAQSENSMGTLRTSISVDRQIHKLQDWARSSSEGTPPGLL
Procedure: Thus, in vitro studies were performed on standard assay systems, namely, guinea-pig ileum (GPI), rat uterus (RU) and rabbit jugular vein (RJV). […] The potency of each compound was assessed as a pA2 value according to the method of Arunlakshana & Schild, Br. J. Pharmacol. Chemother., 1.4:48-58 (1959). The pA2 can be defined as the negative logarithm of the molar concentration of the antagonist in the presence of which the potency of the agonist is reduced two-fold, i.e., twice the amount of agonist is required to produce a given response in the presence of, than in the absence of, the antagonist. A high potency of antagonism is indicated by a high pA2 value, i.e., a low concentration of antagonist is effective.
The percentage recovery (% Rec) was also determined for compounds with respect to each assay.
The various compounds identified in Table B below were prepared following the procedure of Example 1 with the Cys moiety introduced into the parent CP-0088 at the position indicated followed by reaction between the sulfhydryl group of the Cys residue and BMH to provide dimers as indicated. The Cys-modified monomers and the resultant dimers were tested for activity on guinea pig ileum in vitro on the standard tissue bath/strain gauge system as before.

[3] = Table B, read-out: pA2 GUINEA PIG ILEUM (converted)

`CCCC[C@H](NC(=O)[C@H](CC(C)C)NC(=O)[C@@H](Cc1c[nH]c2ccccc12)NC(=O)[C@H](Cc1ccccc1)NC(=O)[C@@H](Cc1ccccc1)NC(=O)[C@H](CC(N)=O)NC(=O)[C@H](CCC(N)=O)NC(=O)[C@@H]1CCCN1C(=O)[C@H](CCCCN)NC(=O)[C@H]1CCCN1C(=O)[C@@H](N)CCCCNC(=O)CCCCCN1C(=O)CC(SC[C@H](NC(=O)[C@H](Cc2ccccc2)NC(=O)CNC(=O)[C@@H]2C[C@@H](O)CN2C(=O)[C@@H]2CCCN2C(=O)[C@H](CCCNC(=N)N)NC(=O)[C@H](N)CCCNC(=N)N)C(=O)N[C@H](Cc2ccccc2)C(=O)N[C@@H](CC(C)C)C(=O)N[C@@H](CCCNC(=N)N)C(=O)O)C1=O)C(N)=O` (stereo partly drawn) [CP-0390] (HELM PEPTIDE1{K.[dP].K.P.Q.N.[dF].F.[dW].L.[Nle].[am]}|PEPTIDE2{[dR].R.P.[Hyp].G.F.C.[dF].L.R}|CHEM1{[O=C1CC([*:2])C(=O)N1CCCCCC(=O)[*:1]]}$PEPTIDE1,CHEM1,1:R3-1:R1|PEPTIDE2,CHEM1,7:R3-1:R2$$$V2.0) was tested, and the Kb (BK2 receptor [1]) was 63.1 nM and the Kb (NK1 receptor) was 15800 nM.
`CCCC[C@H](NC(=O)[C@H](CCCCNC(=O)CCCCCN1C(=O)CC(SC[C@H](NC(=O)[C@H](Cc2ccccc2)NC(=O)CNC(=O)[C@@H]2C[C@@H](O)CN2C(=O)[C@@H]2CCCN2C(=O)[C@H](CCCNC(=N)N)NC(=O)[C@H](N)CCCNC(=N)N)C(=O)N[C@H](Cc2ccccc2)C(=O)N[C@@H](CC(C)C)C(=O)N[C@@H](CCCNC(=N)N)C(=O)O)C1=O)NC(=O)[C@@H](Cc1c[nH]c2ccccc12)NC(=O)[C@H](Cc1ccccc1)NC(=O)[C@@H](Cc1ccccc1)NC(=O)[C@H](CC(N)=O)NC(=O)[C@H](CCC(N)=O)NC(=O)[C@@H]1CCCN1C(=O)[C@H](CCCCN)NC(=O)[C@H]1CCCN1C(=O)[C@H](N)CCCNC(=N)N)C(N)=O` (stereo partly drawn) [CP-0399] (HELM PEPTIDE1{[dR].[dP].K.P.Q.N.[dF].F.[dW].K.[Nle].[am]}|PEPTIDE2{[dR].R.P.[Hyp].G.F.C.[dF].L.R}|CHEM1{[O=C1CC([*:2])C(=O)N1CCCCCC(=O)[*:1]]}$PEPTIDE1,CHEM1,10:R3-1:R1|PEPTIDE2,CHEM1,7:R3-1:R2$$$V2.0) showed a Kb (BK2 receptor [1]) of 39.8 nM and a Kb (NK1 receptor) of 12600 nM.
With `CCCC[C@H](NC(=O)[C@H](CC(C)C)NC(=O)[C@@H](Cc1c[nH]c2ccccc12)NC(=O)[C@H](Cc1ccccc1)NC(=O)[C@@H](Cc1ccccc1)NC(=O)[C@H](CC(N)=O)NC(=O)[C@H](CCC(N)=O)NC(=O)[C@H](CCCCNC(=O)CCCCCN1C(=O)CC(SC[C@H](NC(=O)[C@H](Cc2ccccc2)NC(=O)CNC(=O)[C@@H]2C[C@@H](O)CN2C(=O)[C@@H]2CCCN2C(=O)[C@H](CCCNC(=N)N)NC(=O)[C@H](N)CCCNC(=N)N)C(=O)N[C@H](Cc2ccccc2)C(=O)N[C@@H](CC(C)C)C(=O)N[C@@H](CCCNC(=N)N)C(=O)O)C1=O)NC(=O)[C@H](CCCCN)NC(=O)[C@H]1CCCN1C(=O)[C@H](N)CCCNC(=N)N)C(N)=O` (stereo partly drawn) [CP-0393] (HELM PEPTIDE1{[dR].[dP].K.K.Q.N.[dF].F.[dW].L.[Nle].[am]}|PEPTIDE2{[dR].R.P.[Hyp].G.F.C.[dF].L.R}|CHEM1{[O=C1CC([*:2])C(=O)N1CCCCCC(=O)[*:1]]}$PEPTIDE1,CHEM1,4:R3-1:R1|PEPTIDE2,CHEM1,7:R3-1:R2$$$V2.0) the Kb (BK2 receptor [1]) was 39.8 nM and the Kb (NK1 receptor) was 3160 nM.
Work on `CC(C)C[C@H](NC(=O)[C@@H](Cc1ccccc1)NC(=O)[C@H](CSSC[C@H](NC(=O)[C@H](Cc1ccccc1)NC(=O)CNC(=O)[C@@H]1C[C@@H](O)CN1C(=O)[C@@H]1CCCN1C(=O)[C@H](CCCNC(=N)N)NC(=O)[C@H](N)CCCNC(=N)N)C(=O)N[C@H](Cc1ccccc1)C(=O)N[C@@H](CC(C)C)C(=O)N[C@@H](CCCNC(=N)N)C(=O)O)NC(=O)[C@H](Cc1ccccc1)NC(=O)CNC(=O)[C@@H]1C[C@@H](O)CN1C(=O)[C@@H]1CCCN1C(=O)[C@H](CCCNC(=N)N)NC(=O)[C@H](N)CCCNC(=N)N)C(=O)N[C@@H](CCCNC(=N)N)C(=O)O` [CP-0138] (HELM PEPTIDE1{[dR].R.P.[Hyp].G.F.C.[dF].L.R}|PEPTIDE2{[dR].R.P.[Hyp].G.F.C.[dF].L.R}$PEPTIDE1,PEPTIDE2,7:R3-7:R3$$$V2.0) yielded a Kb (BK2 receptor [1]) of 10 nM and a Kb (BK2 receptor [2]; Table E, read-out: GPI pA2 (converted)) of 63.1 nM.
`CC(C)C[C@H](NC(=O)[C@@H](Cc1ccccc1)NC(=O)[C@H](CO)NC(=O)[C@H](Cc1ccccc1)NC(=O)CNC(=O)[C@@H]1C[C@@H](O)CN1C(=O)[C@@H]1CCCN1C(=O)[C@H](CCCNC(=N)N)NC(=O)[C@H](N)CS)C(=O)N[C@@H](CCCNC(=N)N)C(=O)O` [CP-0149] (HELM PEPTIDE1{[dC].R.P.[Hyp].G.F.S.[dF].L.R}$$$$V2.0) was tested, and the Kb (BK2 receptor [2]; [3]) was 200 nM.
`CC(C)C[C@H](NC(=O)[C@@H](Cc1ccccc1)NC(=O)[C@H](CO)NC(=O)[C@H](Cc1ccccc1)NC(=O)CNC(=O)[C@@H]1C[C@@H](O)CN1C(=O)[C@@H]1CCCN1C(=O)[C@H](CCCNC(=N)N)NC(=O)[C@@H](N)CS)C(=O)N[C@@H](CCCNC(=N)N)C(=O)O` [CP-0140] (HELM PEPTIDE1{C.R.P.[Hyp].G.F.S.[dF].L.R}$$$$V2.0) was tested, and the Kb (BK2 receptor [1]) was 79.4 nM and the Kb (BK2 receptor [2]; [3]) was 200 nM.
With `CC(C)C[C@H](NC(=O)[C@@H](Cc1ccccc1)NC(=O)[C@H](CO)NC(=O)[C@H](Cc1ccccc1)NC(=O)CNC(=O)[C@@H]1C[C@@H](O)CN1C(=O)[C@H](CS)NC(=O)[C@H](CCCNC(=N)N)NC(=O)[C@H](N)CCCNC(=N)N)C(=O)N[C@@H](CCCNC(=N)N)C(=O)O` [CP-0142] (HELM PEPTIDE1{[dR].R.C.[Hyp].G.F.S.[dF].L.R}$$$$V2.0) the Kb (BK2 receptor [2]; [3]) was > 1000 nM.
Compound `CC(C)C[C@H](NC(=O)[C@@H](Cc1ccccc1)NC(=O)[C@H](CO)NC(=O)[C@H](Cc1ccccc1)NC(=O)CNC(=O)[C@@H]1C[C@@H](O)CN1C(=O)[C@@H]1CCCN1C(=O)[C@H](CSC1CC(=O)N(CCCCCCN2C(=O)CC(SC[C@H](NC(=O)[C@H](N)CCCNC(=N)N)C(=O)N3CCC[C@H]3C(=O)N3C[C@H](O)C[C@H]3C(=O)NCC(=O)N[C@@H](Cc3ccccc3)C(=O)N[C@@H](CO)C(=O)N[C@H](Cc3ccccc3)C(=O)N[C@@H](CC(C)C)C(=O)N[C@@H](CCCNC(=N)N)C(=O)O)C2=O)C1=O)NC(=O)[C@H](N)CCCNC(=N)N)C(=O)N[C@@H](CCCNC(=N)N)C(=O)O` (stereo partly drawn) [CP-0153] (HELM PEPTIDE1{[dR].C.P.[Hyp].G.F.S.[dF].L.R}|PEPTIDE2{[dR].C.P.[Hyp].G.F.S.[dF].L.R}|CHEM1{[O=C1CC([*:1])C(=O)N1CCCCCCN1C(=O)CC([*:2])C1=O]}$PEPTIDE1,CHEM1,2:R3-1:R1|PEPTIDE2,CHEM1,2:R3-1:R2$$$V2.0) has a Kb (BK2 receptor [2]; [3]) of 25.1 nM.
For `CC(C)C[C@H](NC(=O)[C@@H](Cc1ccccc1)NC(=O)[C@H](CO)NC(=O)[C@H](Cc1ccccc1)NC(=O)CNC(=O)[C@@H]1C[C@@H](O)CN1C(=O)[C@H](CSC1CC(=O)N(CCCCCCN2C(=O)CC(SC[C@H](NC(=O)[C@H](CCCNC(=N)N)NC(=O)[C@H](N)CCCNC(=N)N)C(=O)N3C[C@H](O)C[C@H]3C(=O)NCC(=O)N[C@@H](Cc3ccccc3)C(=O)N[C@@H](CO)C(=O)N[C@H](Cc3ccccc3)C(=O)N[C@@H](CC(C)C)C(=O)N[C@@H](CCCNC(=N)N)C(=O)O)C2=O)C1=O)NC(=O)[C@H](CCCNC(=N)N)NC(=O)[C@H](N)CCCNC(=N)N)C(=O)N[C@@H](CCCNC(=N)N)C(=O)O` (stereo partly drawn) [CP-0154] (HELM PEPTIDE1{[dR].R.C.[Hyp].G.F.S.[dF].L.R}|PEPTIDE2{[dR].R.C.[Hyp].G.F.S.[dF].L.R}|CHEM1{[O=C1CC([*:1])C(=O)N1CCCCCCN1C(=O)CC([*:2])C1=O]}$PEPTIDE1,CHEM1,3:R3-1:R1|PEPTIDE2,CHEM1,3:R3-1:R2$$$V2.0), the Kb (BK2 receptor [2]; [3]) was 126 nM.
`CC(C)C[C@H](NC(=O)[C@@H](Cc1ccccc1)NC(=O)[C@H](CO)NC(=O)[C@H](CS)NC(=O)CNC(=O)[C@@H]1C[C@@H](O)CN1C(=O)[C@@H]1CCCN1C(=O)[C@H](CCCNC(=N)N)NC(=O)[C@H](N)CCCNC(=N)N)C(=O)N[C@@H](CCCNC(=N)N)C(=O)O` [CP-0144] (HELM PEPTIDE1{[dR].R.P.[Hyp].G.C.S.[dF].L.R}$$$$V2.0) showed a Kb (BK2 receptor [2]; [3]) of 398 nM.

— US5620958A, “Bradykinin antagonists” (Coretech, Inc., priority 1994, dated 1997)
